How the values were obtained:
[1] = Current response of electron mediators in buffer solution and in the presence of blood, urine
Source text: Of these oxidation-reduction enzymes, glucose oxidase (GOD) is used in enzyme electrodes for the measurement of blood glucose level and horseradish peroxidase (HRPO) is used as a label enzyme in specific binding assays such as DNA hybridization, immunoassay and the like. […] However, these electron mediators were not able to show stable and reproducible response in the presence of blood, urine and the like because of the interfering substances contained therein.

Glucose oxidase (GOD) = target: T1, Glucose oxidase (GOD) (Aspergillus niger, UniProt P13006); assay: Electron transfer activity 1: GOD-glucose-compound, current at +300 mV; type: biochemical; settings: +300 mV vs Ag/AgCl, pH 6.0
T1 construct: purchased Boehringer-Mannheim
Protocol: Measurement of electron transfer activities of TEPD, TCPD, THEPD, TDHPD, HTEPD, N,N'-BHPD, N,N-BHDPD, N,N'-BHDPD, and p-phenylenediamine derivatives having substituted amino group by reacting p-phenylenediamine with propyleneoxide--1
Glucose oxidase (GOD, manufactured by Boehringer-Mannheim) was dissolved in 0.1M phosphate buffer (pH 6.0) containing 0.1M NaCl to prepare 0M and 4.0×10^-4 M GOD solutions. Also, glucose (manufactured by Junsei Kagaku) was dissolved in the same buffer to prepare a 1.5M solution. In the same manner, each of the TEPD, TCPD, THEPD, TDHPD, HTEPD, N,N-BHDPD, N,N'-BHPD, N,N'-BHDPD, and p-phenylenediamine derivatives having substituted amino group by reacting p-phenylenediamine with propyleneoxide obtained in Synthesis Examples 1 to 9 was dissolved in the same buffer to prepare a 5.0×10^-3 M solution.
Each of these solutions was mixed in 0.1M phosphate buffer (pH 6.0) containing 0.1M NaCl in the following mixing ratio just before the measurement to prepare solutions of the following compositions A and B, and current was measured continuously in the presence (composition A) or absence (composition B) of GOD.
Using the same apparatus of Test Example 2, electric current was measured in the presence (composition A) or absence (composition B) of GOD for 10 minutes under application of potential of +300 mV (vs Ag/AgCl) to the working electrode.

[2] = Dry chemistry type chips: filter paper impregnated with mediator solution and dried on an electrode; settings: mediator dried on cellulose or glass filter paper, dissolved by liquid sample
Source text: In addition, the present inventors have attempted to prepare a dry chemistry type chips by impregnating a piece of cellulose filter paper or glass filter paper with a solution of HQ, PPD, TMPD or TEPD and drying the resulting piece on an electrode (by freeze-drying, vacuum drying, air-drying or the like) or arranging it on an electrode after drying so that the impregnated electron mediator can dissolve in a liquid sample at the time of measurement.

hCG = assay: Measurement of hCG in whole blood with specific binding assay device (MEDIA method), freeze-dried electron mediator member; design: species or system human; settings: hCG 0 vs 1,000 IU/l whole blood, -150 mV
Protocol: The specific binding assay device shown in FIGS. 2 and 3 was constructed, and concentration of hCG in samples was measured using the device. The HRPO-HM81 obtained in the above step (1) was diluted with a phosphate buffer (pH 6.0) containing 5% normal rabbit serum (NRS), 10% saccharose and 0.1M NaCl to prepare a solution having a peroxidase activity of 0.63 U/ml. Next, 140 μl of the solution was spotted on a circular filter paper piece of 12 mm in diameter punched out from glass fiber filter paper (GA100, manufactured by Advantech Toyo) and then freeze-dried to obtain an HRPO-HM81 freeze-dry member to be used as the labeled antibody-impregnatedmember 14. The THEPD obtained in Synthesis Example 3 was dissolved in a phosphate buffer (pH 6.0) containing 0.1M NaCl to prepare a 5.0 mM solution. Next, 140 μl of the solution was spotted on a circular filter paper piece of 12 mm in diameter punched out from glass fiber filter paper (GA100, manufactured by Advantech Toyo) and then freeze-dried to obtain a THEPD freeze-dry member to be used as the electron mediator-impregnated member 16 of the present invention. The TEPD obtained in Synthesis Example 1 was dissolved in a phosphate buffer (pH 6.0) containing 1M NaCl to prepare a 5.0 mM solution. […]

T1 sequence (P13006 17-605): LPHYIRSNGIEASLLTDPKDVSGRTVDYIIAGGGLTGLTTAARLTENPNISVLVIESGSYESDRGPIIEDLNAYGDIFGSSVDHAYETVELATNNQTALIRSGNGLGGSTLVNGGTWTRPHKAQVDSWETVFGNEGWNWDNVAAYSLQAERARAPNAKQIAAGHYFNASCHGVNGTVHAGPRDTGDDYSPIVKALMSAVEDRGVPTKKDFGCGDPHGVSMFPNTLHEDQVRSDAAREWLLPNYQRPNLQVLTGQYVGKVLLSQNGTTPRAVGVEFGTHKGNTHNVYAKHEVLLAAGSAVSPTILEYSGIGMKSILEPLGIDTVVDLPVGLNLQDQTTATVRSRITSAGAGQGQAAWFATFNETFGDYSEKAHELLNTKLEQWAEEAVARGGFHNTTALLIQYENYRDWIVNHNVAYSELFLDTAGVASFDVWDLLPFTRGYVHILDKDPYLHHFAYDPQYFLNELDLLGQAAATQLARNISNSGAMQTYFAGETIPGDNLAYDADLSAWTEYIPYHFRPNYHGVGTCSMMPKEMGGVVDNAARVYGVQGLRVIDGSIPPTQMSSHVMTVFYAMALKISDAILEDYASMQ

## CCN(CC)c1ccc(N(CC)CC)cc1.Cl.Cl [TEPD, N,N,N',N'-tetraethyl-p-phenylenediamine dihydrochloride, reference compound]
[1]; in a buffer solution
  current response: excellent current response
[1]; interfering substances in blood, urine
  response in the presence of blood, urine and the like: interference
Glucose oxidase (GOD)
  function as electron mediator between GOD and the electrode: function as a reversible electron mediator between GOD and the electrode
[2]
  current response and characteristics of dry chemistry type chips: low current response and extremely poor characteristics
hCG
  electric current response to hCG concentration: the electric current did not increase in response to the concentration of hCG

## Cl.Cl.OCCN(CCO)c1ccc(N(CCO)CCO)cc1 [THEPD, N,N,N',N'-tetrakis-(2'-hydroxyethyl)-p-phenylenediamine dihydrochloride]
Glucose oxidase (GOD)
  function as electron mediator between GOD and the electrode: function as a reversible electron mediator between GOD and the electrode
hCG
  electric current response to hCG concentration: the reduction current became high in response to the concentration of hCG

Reference: patent publication US5609749A, “Electrochemical assay method with novel p-phenylenediamine compound” (Mochida Pharmaceutical Co., Ltd., priority 1993, dated 1997)
